These results are taken from the Deep4Chem optical property database.

This series in a line: photoluminescence quantum yield (fraction); solvent given as SMILES.
The mark [1] stands for this setting: in O=P(c1ccccc1)(c1ccccc1)c1ccccc1Oc1ccccc1P(=O)(c1ccccc1)c1ccccc1.

SMILES strings stand for the structures.

`COC(=O)c1ccc(-c2cc3ccc4cccc5ccc(c2)c3c45)cc1` yielded a photoluminescence quantum yield (in Cc1ccccc1) of 0.43.

As to `COc1ccc(C2=N/C(=C\c3ccccc3)C(=O)O2)cc1OC`, where the note is “in C1COCCO1”, the photoluminescence quantum yield amounted to 0.02.

With `N#Cc1ccc(/C=C/c2c3ccccc3cc3ccccc23)cc1`, the photoluminescence quantum yield by setting is: (in CC1CCCCC1) 0.27; (in CC#N) 0.003; (in CO) 0.029; (in Cc1ccccc1) 0.23; (in ClC(Cl)Cl) 0.05.

With `CB1C=Cc2ccc3ccccc3c2N1`, the photoluminescence quantum yield (in C1CCCCC1) is 0.7.

As to `CSc1ccc2c(c1)N(CCCN(C)C)c1ccccc1S2`, the photoluminescence quantum yield is, setting by setting: (in CC#N) 0.003; (in CO) 0.003; (in O) 0.003.

With `CC(=O)c1ccc(/C=C/C=C/C2=NC3C(=O)NC(N)=NC3N2[C@H]2C[C@H](O)[C@@H](CO)O2)cc1` (some centres not stated), the photoluminescence quantum yield amounted to 0.59 (in C1COCCO1), 0.57 (in CC#N) and 0.015 (in CO).

On to `O=C1c2ccccc2S(=O)(=O)c2ccc(-n3c4ccccc4c4ccccc43)cc21`, for which the photoluminescence quantum yield (in c1cc(-c2cccc(-n3c4ccccc4c4ccccc43)c2)cc(-n2c3ccccc3c3ccccc32)c1) is 0.296.

On to `CC1(C)C(/C=C/C2=C(c3ccc(C(=O)O)cc3)C(=C/C=C3/N(CCCCS(=O)(=O)[O-])c4ccc5ccccc5c4C3(C)C)/CCC2)=[N+](CCCCS(=O)(=O)[O-])c2ccc3ccccc3c21`, for which the photoluminescence quantum yield (in CO) amounted to 0.092.

As to `O=[N+]([O-])c1ccc(S(=O)(=O)Nc2ccc(C#Cc3ccc4ccc5ccc(C#Cc6ccc(NS(=O)(=O)c7ccc([N+](=O)[O-])cc7[N+](=O)[O-])cc6)c6ccc3c4c56)cc2)c([N+](=O)[O-])c1`, the photoluminescence quantum yield (in CO) was 0.003.

`Cc1cc(C)c(B(c2c(C)cc(C)cc2C)c2cc3cc(N(C)C)c4ccccc4c3c3c2ccc2ccccc23)c(C)c1`: the photoluminescence quantum yield by setting is: (in C1CCCCC1) 0.36; (in C1CCOC1) 0.21; (in CC#N) 0.13; (in ClC(Cl)Cl) 0.2; (in c1ccccc1) 0.3.

As for `O=Cc1cc(O)ccc1O`, the photoluminescence quantum yield by setting is: (in C1CCOC1) 0.0001; (in C1COCCO1) 0.0001; (in CC#N) 0.0001; (in CC(C)=O) 0.01; (in CCCO) 0.03; (in CCO) 0.04. Also, the photoluminescence quantum yield worked out at 0.06 (in CN(C)C=O); 0.14 (in CN(C)P(=O)(N(C)C)N(C)C); 0.14 (in CNC=O); 0.0001 (in CO); 0.17 (in CS(C)=O); 0.07 (in NC=O).

With `Cc1nnc(-c2cc(-c3nnc(C)o3)c(-n3c4ccccc4c4ccccc43)cc2-n2c3ccccc3c3ccccc32)o1`, the photoluminescence quantum yield is, setting by setting: (in Cc1ccccc1) 0.068; under setting [1], 0.59.

For `Cc1ccc(C2=C3C=C(I)C=[N+]3[B-](F)(F)n3c2cc(I)c3I)cc1`, the photoluminescence quantum yield is, setting by setting: (in C1CCCCC1) 0.06; (in CC#N) 0.02; (in CCO) 0.026; (in CCOC(C)=O) 0.034; (in CO) 0.025; (in OCC(F)(F)F) 0.022.

As for `CC(C)(C)c1ccc2c(c1)c1cc(C(C)(C)C)ccc1n2-c1ccc(-c2nc(-c3ccc(P(=O)(c4ccccc4)c4ccccc4)cc3)nc(-c3ccc(P(=O)(c4ccccc4)c4ccccc4)cc3)n2)cc1`, under setting [1], the photoluminescence quantum yield turned out to be 0.96.

Take `Cc1cc(-c2ccc(-c3ccccc3)cc2)cc(C)[o+]1`: the photoluminescence quantum yield (in ClCCl) worked out at 0.78.

`CN(C)c1cccc(/C=C/c2ncc(-c3ccc(OCc4ccccc4)c(OCc4ccccc4)c3)o2)c1` gave a photoluminescence quantum yield (in ClCCl) of 0.37.

`CC[C@H](C)COc1ccc(C2=C3C(C)=CC(C)=[N+]3[B-](F)(F)n3c(C)cc(C)c32)cc1`: where the note is “in ClCCl”, the photoluminescence quantum yield worked out at 0.87.

On to `CN(C)c1ccc(C(=O)Nc2ccc(Cl)cc2)cc1`, for which the photoluminescence quantum yield came to 0.0011 (in C1CCCCC1), 0.0101 (in C1CCOC1), 0.0171 (in CC#N) and 0.005 (in CCOCC).

Regarding `O=c1oc2cccc3c4cccc5ccc6c7ccccc7c1c(c23)c6c54`, for the setting “in C1CCOC1”, the photoluminescence quantum yield was 0.287.

Compound `C[P+](c1c2ccccc2cc2ccccc12)(c1c2ccccc2cc2ccccc12)c1c2ccccc2cc2ccccc12` displayed a photoluminescence quantum yield (in C1CCOC1) of 0.0077.

For the compound `C#CC1CN2CCC1CC2[C@@H](O)c1ccnc2ccc(OC)cc12` (some centres not stated), the photoluminescence quantum yield runs as follows: (in C1CCOC1) 0.063; (in CC#N) 0.008; (in CCCC#N) 0.032; (in Cc1ccccc1) 0.023; (in ClCCl) 0.033.

For the compound `CC1(C)c2ccccc2N(c2ccc(-c3nc4cccc5c4n3-c3ccccc3C5(C)C)cc2)c2ccccc21`, the photoluminescence quantum yield was determined as 0.34 (in Cc1ccccc1) and 0.51 under setting [1].

As to `Cc1nc2c(ccc3c2sc(/C=C/C=C/c2ccc(N(C)C)cc2)[n+]3C)s1`, the photoluminescence quantum yield is 0.032 (in CO) and 0.16 (in ClC(Cl)Cl).

`CCCCCCCN1C(=CC2=C([O-])C(=CC3=[N+](CCCCCCC)c4ccccc4C3(C)C)C2=C(C#N)C#N)Sc2ccccc21`: the photoluminescence quantum yield is 0.16 (in C1COCCO1), 0.15 (in CCO), 0.16 (in CN(C)C=O) and 0.17 (in ClC(Cl)Cl).

For `O=c1c2ccccc2sc2ccccc12`, the photoluminescence quantum yield is, setting by setting: (in C1CCOC1) 0.012; (in C1COCCO1) 0.015; (in CC#N) 0.066; (in CC(C)=O) 0.024; (in CC(C)O) 0.14; (in CCCCOC(C)=O) 0.0078. The same compound had a photoluminescence quantum yield (in CO) of 0.25, a photoluminescence quantum yield (in OCCO) of 0.41 and a photoluminescence quantum yield (in c1ccccc1) of 0.012.

`c1ccc2cc3c(cc2c1)-c1cccc2cc4ccccc4c-3c12`: the photoluminescence quantum yield (in CCCCCCC) came out at 0.52.

Consider `COc1cc(OC)c2c(c1)C(=O)c1ccccc1-2`, for which the photoluminescence quantum yield turned out to be 0.026 (in C1CCCCC1), 0.0012 (in CC#N) and 0 (in CCO).

With `O=c1c2cccc3cccc(c32)c2nc3c(F)c(F)c(F)c(F)c3n12`, the photoluminescence quantum yield (in ClCCl) came to 0.82.

Take `CC(C)(C)c1ccc2c(c1)c1cc(C(C)(C)C)ccc1n2-c1ccc(N(c2ccc(-c3ccc(-c4ccc(N(c5ccc(-n6c7ccc(C(C)(C)C)cc7c7cc(C(C)(C)C)ccc76)cc5)c5ccc(-n6c7ccc(C(C)(C)C)cc7c7cc(C(C)(C)C)ccc76)cc5)cc4)c4nsnc34)cc2)c2ccc(-n3c4ccc(C(C)(C)C)cc4c4cc(C(C)(C)C)ccc43)cc2)cc1`: the photoluminescence quantum yield (in ClCCl) stood at 0.05.

Regarding `O=C1C2=C3c4ccsc4C=CN3C(=O)C2=C2c3ccsc3C=CN12`, the photoluminescence quantum yield was 0.73 (in CN(C)C=O) and 0.8 (in ClC(Cl)Cl).

Take `CC(C)(C)c1ccc2c(c1)sc1[n+]2[B-](F)(F)n2c(c3cccc4cccc2c43)=N1`: the photoluminescence quantum yield (in C1CCOC1) stood at 0.85; the photoluminescence quantum yield (in CC#N) is 0.93; the photoluminescence quantum yield (in CCCCCC) came out at 0.87; the photoluminescence quantum yield (in Cc1ccccc1) is 0.86; the photoluminescence quantum yield (in ClCCl) came out at 0.86.

For the compound `C[Si](C)(c1cccc2ccccc12)[Si](C)(C)[Si](C)(C)[Si](C)(C)[Si](C)(C)[Si](C)(C)c1c2ccccc2cc2ccccc12`, the photoluminescence quantum yield runs as follows: (in C1CCCCC1) 0.5; (in CC#N) 0.017.

Under “in C1CCOC1”, `O=S1(=O)C(c2ccsc2)=C(c2ccsc2)c2ccccc21` yielded a photoluminescence quantum yield of 0.005.

In the case of `COCCC1=Cc2nc1ccc1[nH]c(cc1CCOC)c1nc(c(O)cc3[nH]c2cc3CCOC)C(CCOC)=C1`, the photoluminescence quantum yield (in Cc1ccccc1) is 0.18.

In the case of `CCOC(=O)CN1C(=O)C2=C(c3ccc(N4CCCCC4)cc3)N(CC(=O)OCC)C(=O)C2=C1c1ccc(C#N)cc1`, the photoluminescence quantum yield runs as follows: (in CC#N) 0.01; (in CS(C)=O) 0.001; (in Cc1ccccc1) 0.16.

Where the note is “in Cc1ccccc1”, `N#Cc1ccc2c(c1)C1(c3cc(C#N)ccc3-2)c2ccccc2N(c2ccccc2)c2ccccc21` gave a photoluminescence quantum yield of 0.47.

With `CCCCCCOc1ccc2ccc3oc(=O)cc4cc(OCCCCCC)c1c2c43`, for the setting “in CC1CCCO1”, the photoluminescence quantum yield came to 0.83.

In the case of `O=C1c2ccccc2-c2cccc(O)c21`, the photoluminescence quantum yield worked out at 0.0129 (in C1CCCCC1); 0.0284 (in C1COCCO1); 0.053 (in CC#N); 0.024 (in CC(C)O); 0.022 (in CCCCO); 0.021 (in CCCO). The photoluminescence quantum yield amounted to 0.0197 (in CCO), 0.0383 (in CCOC(C)=O), 0.022 (in CCOCC) and 0.012 (in CO).

As to `c1ccc2cc3cc4c(cc3cc2c1)-c1cccc2cccc-4c12`, the photoluminescence quantum yield (in CCCCCCC) came out at 0.58.

Take `O=C(c1ccc(-n2c3ccc(-c4ccccc4)cc3c3cc(-c4ccccc4)ccc32)cc1)c1ccc(-n2c3ccc(-c4ccccc4)cc3c3cc(-c4ccccc4)ccc32)cc1`: under “in Cc1ccccc1”, the photoluminescence quantum yield came out at 0.153.

For the setting “in CO”, `Cc1ccc(-c2nc(-c3ccc(O)cc3)[nH]c2-c2ccc(C)cc2)cc1` registered a photoluminescence quantum yield of 0.2.

Consider `COc1ccc(-c2nc(-c3ccc(C#N)cc3)[nH]c2-c2ccc(OC)cc2)cc1`, for which the photoluminescence quantum yield (in CO) was 0.6.

Regarding `c1ccc(N(c2ccccc2)c2cc3c4c(c2)N(c2ccccc2)c2cc5c(cc2B4c2ccccc2N3c2ccccc2)B2c3ccccc3N(c3ccccc3)c3cc(N(c4ccccc4)c4ccccc4)cc(c32)N5c2ccccc2)cc1`, the photoluminescence quantum yield runs as follows: (in Cc1ccccc1) 0.74; (in Cc1ccccc1-c1cccc(Oc2cc3c4c(c2)Oc2cc(-c5ccccc5C)ccc2B4c2ccc(-c4ccccc4C)cc2O3)c1) 0.82.
